# Experimental data from patent US20160168724A1, “POLYVINYLBUTYRAL COATING CONTAINING THIOL CORROSION INHIBITORS” (The Boeing Company, priority 2014, published 2016).
# Assay: Linear sweep voltammetry with rotating disc electrode, inhibitors in electrolyte solution
# Settings: for Current (A) @ −800 mV: 10 ppm inhibitor solution in 5% NaCl-PBS pH 7, copper rotating disc electrode 1000 rpm, LSV; for IE (inhibitor efficiency, Equation 1): 10 ppm inhibitor solution, from current at -800 mV versus blank
# Method: Linear sweep voltammetry (LSV) and chronoamperometry were used to evaluate the performance of the thio-containing corrosion inhibitors as electroactive cathodic-thio compounds. The LSV experiments were performed with a rotating disc electrode (RDE). The rotating disc electrode technique provides certain benefits in measurement sensitivity because the technique indicates current at steady state with a kinetic flow over the electrode rather than a static measurement in solution (FIG. 1).
# Inhibitor performance was measured based on the ability of the compound to prevent the oxygen reduction reaction in electrolyte using a rotating disc electrode. If current values were closer to zero then the inhibitor was considered to be appropriate because the oxygen reduction reaction, which is an indication of corrosion, was sequestered or stopped. Solutions of known concentration (e.g., containing 10 ppm inhibitor) were used to compared inhibitors. Inhibitor efficiency (IE), is calculated using Equation 1 (IE corrects for contributions not attributable to the inhibitor (e.g., electrolyte)).
# Inhibitor Efficiency=(iinhibitor−iblank)/iblank (Equation 1)
# Performance of different inhibitors (10 ppm solutions) was evaluated by measuring current value (A) at −800 mV and determining inhibitor efficiency, the results of which are shown in Table 5.
# A 5% (wt/wt) sodium chloride solution (that is, electrolyte system A of Table 7) was selected to simulate a highly corrosive environment and potentially accelerate the corrosion. The electrolyte was buffered to eliminate changes in pH from effecting inhibitor performance measurements. A pH of 7 was selected because it was similar to seawater.
# The 5% (wt/wt) (0.9 M) sodium chloride electrolyte solution was generated by adding reagent grade sodium chloride to <18 M·cm resistivity to deionized water (52.6 gm NaCl to 1 liter water). The solution was then buffered to neutral pH 7 with phosphate buffered saline tablets from Sigma Aldrich-(P4417-100TAB), 1 tablet per 200 ml of solution Inhibitors were dissolved in an 5% sodium chloride electrolyte buffered with phosphate buffered saline to maintain the pH at 7. Ten parts per million (10 ppm) solutions were generated by taking an aliquot of solutions with a higher known inhibitor concentration and diluting to make a 10 ppm solution. In most cases the higher concentration target was 50 ppm. The initial solutions were generated by adding 0.050 gm of inhibitor in a 5% NaCl buffered electrolyte in a one liter volumetric flask. Not all of the inhibitor dissolved, so the solution was filtered to calculate the solubility and the actual concentration. The solutions were stirred overnight with a stir bar and then filtered using a pre-weighed, 4.7 cm diameter, 1.0 micron pore size glass fiber filters (Whatman Grade GF/B 1821-047) and a Millipore glass filter funnel. The glass filter and clamp funnel was an improvement to previous filter methods that utilized a Buchner funnel and paper filters. After the filtrate was collected, the funnel and filter paper were rinsed thoroughly with deionized water to ensure that no electrolyte salts were trapped in the filter and that residual solids on the sides of the filter funnel were collected. The filter with solids was dried over night in an approximately 120° C. oven, allowed to come to room temperature in a desiccator, and weighed. The actual solution concentration was calculated based on the actual inhibitor dissolved. Concentration calculations also accounted for residual salts that are sometimes still present in the filter. These were measured by running a blank. An aliquot was taken of the 50 ppm solution and a final 10 ppm solution generated. […]
Compound,Current (A) @ −800 mV,"IE (inhibitor efficiency, Equation 1)"
"Sc1nsc(S)n1 [1,2,4 DMcT, 1,2,4-Thiadiazole-3,5-dithiol]",−1.53 × 10^−4 A,0.70
"Sc1nnc([S][Al]([S]c2nnc(S)s2)[S]c2nnc(S)s2)s1 [1:3AlDMcT (acid), [Al:2,5-dimercapto-1,3,4-thiadiazole (1:3)] (acid)]",−2.83 × 10^−4 A,0.44
"Sc1nnc([S][Al]([S]c2nnc(S)s2)[S]c2nnc(S)s2)s1 [1:3AlDMcT, [Al:2,5-dimercapto-1,3,4-thiadiazole (1:3)]]",−2.25 × 10^−4 A,0.55
"N1=C2SSc3nnc(s3)SSC(=N1)S2 [BDTD, Bis-[2,5-dithio-1,3,4-thiadiazole]]",−3.00 × 10^−4 A,0.40
"Sc1nnc(SSc2nnc(S)s2)s1 [Vanlube 829, 5,5′-Dithiobis(1,3,4-Thiadiazole-2(3H)-thione)]",−2.68 × 10^−4 A,0.47
"[Al:2,5-dimercapto-1,3,4-thiadiazole (3:1)] [3:1 AlDMcT]",−2.59 × 10^−4 A,0.49
